What is called Cmax is the maximum level reached in the sampled fluid or tissue. A word on the bioavailability: it is dose-corrected exposure relative to a reference, in per cent. Higher therefore signals much systemic uptake. The term AUC denotes concentration integrated over time. Low values mean low exposure, high ones high exposure. In general, Ki refers to a dissociation constant, usually derived from enzyme kinetics or from competition with a known ligand. Usually Tmax stands for the time from dosing to the highest level.

The subject of series [1] is Rattus norvegicus. In words: Initial plasma concentration in rat at 1 mg/kg, iv. The format is ADME, organism-based. Further details: dose 1 mg/kg, route intravenous. As to conditions: in vivo.
The nature of series [2]: Cmax in rat at 3 mg/kg, po. The series is classed as ADME, organism-based. Further details: dose 3 mg/kg, route oral. As to conditions: in vivo.
Series [3] in a line: Elimination half life in rat at 1 mg/kg, iv. Further details: dose 1 mg/kg, route intravenous. Particulars: in vivo, read-out: beta t1/2 (converted). The format is ADME, organism-based.
Series [4] in a line: Oral bioavailability in rat at 3 mg/kg. The format is ADME, organism-based. Particulars: in vivo.
Series [5] deals with Rattus norvegicus. Put plainly: Antidepressant activity in po dosed rat assessed as increase in extracellular 5HT level in dorsal lateral frontal cortex after 3 hrs by microdialysis assay. The series is classed as functional, organism-based.
Series [6] is described as follows: AUC in rat at 10 mg/kg, po. The format is ADME, organism-based. Further details: dose 10 mg/kg, route oral. Particulars: plasma.
Series [7] concerns the target T1, Adrenergic receptor alpha-1 (Rattus norvegicus, UniProt P15823+P23944+P43140).
T1 sequence (P15823 whole entry): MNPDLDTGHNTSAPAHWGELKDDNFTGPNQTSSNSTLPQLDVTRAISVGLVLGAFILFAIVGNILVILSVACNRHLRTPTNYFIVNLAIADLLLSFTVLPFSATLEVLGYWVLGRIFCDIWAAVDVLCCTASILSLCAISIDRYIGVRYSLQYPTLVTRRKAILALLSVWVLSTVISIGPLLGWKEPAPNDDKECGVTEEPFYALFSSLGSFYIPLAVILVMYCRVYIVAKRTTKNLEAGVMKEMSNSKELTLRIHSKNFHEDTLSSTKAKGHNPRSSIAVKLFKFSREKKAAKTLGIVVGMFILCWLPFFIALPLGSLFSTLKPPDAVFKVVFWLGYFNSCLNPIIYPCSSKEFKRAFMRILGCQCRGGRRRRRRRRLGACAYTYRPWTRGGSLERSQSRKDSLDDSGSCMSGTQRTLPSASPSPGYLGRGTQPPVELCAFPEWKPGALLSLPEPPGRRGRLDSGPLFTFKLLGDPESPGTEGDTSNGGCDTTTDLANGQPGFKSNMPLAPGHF
T1 sequence (P23944 whole entry): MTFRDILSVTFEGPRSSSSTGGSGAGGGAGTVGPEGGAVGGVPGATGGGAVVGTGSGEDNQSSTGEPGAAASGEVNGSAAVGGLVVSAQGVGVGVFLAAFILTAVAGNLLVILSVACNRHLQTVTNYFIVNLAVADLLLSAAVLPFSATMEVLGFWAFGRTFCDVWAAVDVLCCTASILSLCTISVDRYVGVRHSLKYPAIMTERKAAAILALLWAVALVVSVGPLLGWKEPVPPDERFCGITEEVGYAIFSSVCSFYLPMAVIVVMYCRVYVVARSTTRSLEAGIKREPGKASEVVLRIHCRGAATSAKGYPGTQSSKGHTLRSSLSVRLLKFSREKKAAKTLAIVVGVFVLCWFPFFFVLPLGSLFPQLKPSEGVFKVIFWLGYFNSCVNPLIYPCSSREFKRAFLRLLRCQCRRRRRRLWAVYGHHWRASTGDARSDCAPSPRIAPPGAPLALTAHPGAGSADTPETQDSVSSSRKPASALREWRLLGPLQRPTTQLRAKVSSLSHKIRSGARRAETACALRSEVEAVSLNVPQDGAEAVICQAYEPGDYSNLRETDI
T1 sequence (P43140 whole entry): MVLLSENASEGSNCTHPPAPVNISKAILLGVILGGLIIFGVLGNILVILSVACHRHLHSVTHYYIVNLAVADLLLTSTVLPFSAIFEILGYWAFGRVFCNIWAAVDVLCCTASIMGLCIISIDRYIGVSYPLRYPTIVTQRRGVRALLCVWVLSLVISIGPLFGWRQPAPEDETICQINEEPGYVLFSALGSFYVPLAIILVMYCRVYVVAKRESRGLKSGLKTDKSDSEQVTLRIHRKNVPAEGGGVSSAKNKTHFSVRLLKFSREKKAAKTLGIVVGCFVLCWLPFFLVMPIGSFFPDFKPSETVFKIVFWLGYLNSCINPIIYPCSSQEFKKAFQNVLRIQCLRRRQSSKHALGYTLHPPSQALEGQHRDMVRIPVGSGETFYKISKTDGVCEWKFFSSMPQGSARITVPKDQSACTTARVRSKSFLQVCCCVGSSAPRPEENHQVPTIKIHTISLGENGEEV
Put plainly: Displacement of [3H]prazosin from alpha1 adrenergic receptor in rat cortical membranes. The format is cell membranes, Membrane.

A short description of series [8]: Elimination half life in rat at 10 mg/kg, po. Further details: dose 10 mg/kg, route oral. The series is classed as ADME, organism-based. Particulars: in vivo, read-out: beta t1/2 (converted).
Series [9] in a line: Oral bioavailability in rat at 10 mg/kg. The format is ADME, organism-based. Particulars: in vivo.
In the next series the target is D(2) dopamine receptor (Homo sapiens, UniProt P14416). In words: Displacement of [3H]spiperone from human dopamine D2 receptor expressed in CHO cells. The series is classed as cell-based. On the technique in general: Displacement assays read how much labelled ligand stays bound in the presence of the test substance.
The target in series [10] is T2, 5-hydroxytryptamine receptor 1A (Homo sapiens) (UniProt P08908).
T2 sequence (whole entry): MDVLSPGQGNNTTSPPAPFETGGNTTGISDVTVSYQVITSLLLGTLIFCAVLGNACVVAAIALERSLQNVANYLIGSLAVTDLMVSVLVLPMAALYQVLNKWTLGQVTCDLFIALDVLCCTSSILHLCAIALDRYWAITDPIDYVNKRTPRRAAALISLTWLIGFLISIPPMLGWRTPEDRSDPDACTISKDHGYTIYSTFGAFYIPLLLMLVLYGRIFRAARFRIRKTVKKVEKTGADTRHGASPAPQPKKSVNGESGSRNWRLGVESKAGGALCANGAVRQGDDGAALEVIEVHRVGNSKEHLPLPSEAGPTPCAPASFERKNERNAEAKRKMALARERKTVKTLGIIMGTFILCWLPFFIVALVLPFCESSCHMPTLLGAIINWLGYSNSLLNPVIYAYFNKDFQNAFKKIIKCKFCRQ
Put plainly: Antagonist activity at human 5HT1A receptor expressed in CHO cells assessed as inhibition of [35S]GTPgammaS binding relative to control. The series is classed as functional, cell-based. In general terms: GTPγS resists hydrolysis and so accumulates on activated G proteins.

The nature of series [11]: Tmax in rat at 3 mg/kg, po. The series is classed as ADME, organism-based. Further details: dose 3 mg/kg, route oral. As to conditions: in vivo.

Chain of D(2) dopamine receptor (P14416 whole entry): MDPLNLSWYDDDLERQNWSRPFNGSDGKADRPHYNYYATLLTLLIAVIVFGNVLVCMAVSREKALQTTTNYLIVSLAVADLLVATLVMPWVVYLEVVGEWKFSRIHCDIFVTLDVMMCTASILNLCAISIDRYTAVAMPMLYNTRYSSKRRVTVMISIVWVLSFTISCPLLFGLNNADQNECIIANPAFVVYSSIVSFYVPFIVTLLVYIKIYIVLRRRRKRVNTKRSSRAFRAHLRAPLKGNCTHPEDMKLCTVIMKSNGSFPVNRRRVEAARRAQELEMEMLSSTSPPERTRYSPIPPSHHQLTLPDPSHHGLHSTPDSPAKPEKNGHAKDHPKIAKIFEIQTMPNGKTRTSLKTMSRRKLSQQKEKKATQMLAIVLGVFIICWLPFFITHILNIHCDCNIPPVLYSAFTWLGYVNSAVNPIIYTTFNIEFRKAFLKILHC

In the series on Rattus norvegicus [1], `Cc1ccc2c3c(ccc2n1)OC[C@H](CN1CCN(c2ccc4cc(C#N)ccc4n2)CC1)O3` displayed a C0 of 903 ng/mL. In series [2], this compound registered a Cmax of 456 ng/mL. Also, the half-life in series [3] is 4 h; in [8] it was 3.8 h. For the same compound, the figures for the bioavailability in [4] and in [9] were 61% and 36%, respectively. The Activity result in the series with Rattus norvegicus [5] was “Dose-dependent effect”. Moreover, the AUC in series [6] was 4620 ng·h/mL. Also, the values for the Ki (in [7]; at D(2) dopamine receptor) were 1110 nM and 1310 nM, respectively. Moreover, in [10], the Imax is 88.6%. Further, the Tmax in series [11] turned out to be 1.3 h.

Values taken from ChEMBL document CHEMBL1151947, “Synthesis, potency, and in vivo evaluation of 2-piperazin-1-ylquinoline analogues as dual serotonin reuptake inhibitors and serotonin 5-HT1A receptor antagonists” (J Med Chem, 2009).
